# Laboratory results from patent US20250129430A1, “HIGH ATP-AFFINITY PROTEIN AS THERAPEUTIC TARGET FOR INTRACTABLE CANCER MOLECULAR SUBTYPES AND INHIBITOR THEREOF” (VeraVerse Co., Ltd., priority 2021, published 2025).
# Key:
# Format in all cases: cell-based, human
# AGS = experiment: Cell viability drug screen, 12-point dose-response AUC; conditions: AGS cells (non-SEM subtype); 72 hours
# Method in brief: (§1)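 AUC comes from 12-point half-log dose–response curves, normalized to DMSO-treated cells and integrated trapezoidally, repeats averaged. Luminescent viability read after 72 h compound exposure at 37 °C; cells plated 5×10^3 per well 24 h before dosing.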
# Hs746T = experiment: as above; conditions: Hs746T cells (SEM subtype); 72 hours
# Method in brief: (§2)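 Viability: luminescence (Glo kit, 15 min RT), normalized to 0.5% DMSO vehicle. Dosing: half-log, 12 concentrations, 72 h. Cells: 5×10^3/well, treated 24 h after plating. Value: trapezoidal AUC, mean of repeats.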
# KATO3 = experiment: as above; conditions: KATO3 cells; 72 hours
# Method in brief: as §2
# MKN1 = experiment: as above; conditions: MKN1 cells; 72 hours
# Method in brief: as §2
# MKN28 = experiment: as above; conditions: MKN28 cells; 72 hours
# Method in brief: as §2
# MKN45 = experiment: as above; conditions: MKN45 cells (non-SEM subtype); 72 hours
# Method in brief: as §1
# MKN74 = experiment: as above; conditions: MKN74 cells; 72 hours
# Method in brief: as §1
# NCC19 = experiment: as above; conditions: NCC19 cells; 72 hours
# Method in brief: as §2
# NCC20 = experiment: as above; conditions: NCC20 cells; 72 hours
# Method in brief: as §2
# NCC24 = experiment: as above; conditions: NCC24 cells; 72 hours
# Method in brief: as §2
# NCC59 = experiment: as above; conditions: NCC59 cells; 72 hours
# Method in brief: as §2
# NCI_N87 = experiment: as above; conditions: NCI_N87 cells; 72 hours
# Method in brief: as §2
# OCUM1 = experiment: as above; conditions: OCUM1 cells; 72 hours
# Method in brief: as §2
# SK4 = experiment: as above; conditions: SK4 cells (SEM subtype); 72 hours
# Method in brief: as §2
# SNU16 = experiment: as above; conditions: SNU16 cells; 72 hours
# Method in brief: as §2
# SNU1750 = experiment: as above; conditions: SNU1750 cells (SEM subtype); 72 hours
# Method in brief: as §2
# SNU1967 = experiment: as above; conditions: SNU1967 cells; 72 hours
# Method in brief: as §2
# SNU1 = experiment: as above; conditions: SNU1 cells; 72 hours
# Method in brief: as §2
# SNU216 = experiment: as above; conditions: SNU216 cells (non-SEM subtype); 72 hours
# Method in brief: as §1
# SNU484 = experiment: as above; conditions: SNU484 cells (SEM subtype); 72 hours
# Method in brief: as §2
# SNU601 = experiment: as above; conditions: SNU601 cells; 72 hours
# Method in brief: as §2
# SNU620 = experiment: as above; conditions: SNU620 cells; 72 hours
# Method in brief: as §2
# SNU638 = experiment: as above; conditions: SNU638 cells; 72 hours
# Method in brief: as §2
# SNU668 = experiment: as above; conditions: SNU668 cells (SEM subtype); 72 hours
# Method in brief: as §2
# SNU719 = experiment: as above; conditions: SNU719 cells; 72 hours
# Method in brief: as §1
# YCC11 = experiment: as above; conditions: YCC11 cells (SEM subtype); 72 hours
# Method in brief: as §2
# YCC2 = experiment: as above; conditions: YCC2 cells; 72 hours
# Method in brief: as §2
# YCC3 = experiment: as above; conditions: YCC3 cells; 72 hours
# Method in brief: as §2
# FU97 = experiment: as above; set-up: Average Area Under the Viability Curve (AUC), AUC norm value: scale not given here; conditions: FU97 cells; 72 hours
# Method in brief: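 Trapezoidal AUC of a 12-point, DMSO-normalized dose-response curve. Luminescent viability was measured after 72 h of exposure at 37° C to half-log serial dilutions (0.5% DMSO control), dosed 24 h after plating FU97 cells at 5×10^3 per well.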
# [1] = test system: non-SEM-type gastric cancer cell line; experiment: Cell viability drug screen, AUC summary over non-SEM-type lines; conditions: in the non-SEM-type gastric cancer cell line
smiles,measurement,setting,value
CCC[C@H](NC(=O)/C(C#N)=C/c1cccc(Br)n1)c1ccccc1 [WP1130],"Average Area Under the Viability Curve (AUC), AUC norm value",AGS,−0.6997
same,"Average Area Under the Viability Curve (AUC), AUC norm value",Hs746T,−0.3738
same,"Average Area Under the Viability Curve (AUC), AUC norm value",KATO3,1.454
same,"Average Area Under the Viability Curve (AUC), AUC norm value",MKN1,−0.4264
same,"Average Area Under the Viability Curve (AUC), AUC norm value",MKN28,−0.04006
same,"Average Area Under the Viability Curve (AUC), AUC norm value",MKN45,1.024
same,"Average Area Under the Viability Curve (AUC), AUC norm value",MKN74,−0.1908
same,"Average Area Under the Viability Curve (AUC), AUC norm value",NCC19,1.376
same,"Average Area Under the Viability Curve (AUC), AUC norm value",NCC20,−0.8247
same,"Average Area Under the Viability Curve (AUC), AUC norm value",NCC24,0.3475
same,"Average Area Under the Viability Curve (AUC), AUC norm value",NCC59,0.7588
same,"Average Area Under the Viability Curve (AUC), AUC norm value",NCI_N87,2.159
same,"Average Area Under the Viability Curve (AUC), AUC norm value",OCUM1,−0.652
same,"Average Area Under the Viability Curve (AUC), AUC norm value",SK4,−0.08364
same,"Average Area Under the Viability Curve (AUC), AUC norm value",SNU16,0
same,"Average Area Under the Viability Curve (AUC), AUC norm value",SNU1750,−0.8602
same,"Average Area Under the Viability Curve (AUC), AUC norm value",SNU1967,−0.7195
same,"Average Area Under the Viability Curve (AUC), AUC norm value",SNU1,1.527
same,"Average Area Under the Viability Curve (AUC), AUC norm value",SNU216,0.1101
same,"Average Area Under the Viability Curve (AUC), AUC norm value",SNU484,−0.8971
same,"Average Area Under the Viability Curve (AUC), AUC norm value",SNU601,3.24
same,"Average Area Under the Viability Curve (AUC), AUC norm value",SNU620,1.336
same,"Average Area Under the Viability Curve (AUC), AUC norm value",SNU638,−0.3485
same,"Average Area Under the Viability Curve (AUC), AUC norm value",SNU668,0.1607
same,"Average Area Under the Viability Curve (AUC), AUC norm value",SNU719,1.245
same,"Average Area Under the Viability Curve (AUC), AUC norm value",YCC11,−0.2144
same,"Average Area Under the Viability Curve (AUC), AUC norm value",YCC2,0.94
same,"Average Area Under the Viability Curve (AUC), AUC norm value",YCC3,0.8784
same,"Average Area Under the Viability Curve (AUC), AUC norm value",FU97,−0.7929
same,AUC value,[1],high
